Biological target: T1, p300 (Homo sapiens, UniProt Q09472)
T1 construct: host or cells: A549 P300 HiBit cells
Experiment: P300 degradation, HiBit technology in A549 P300 HiBit cells (2 h)
Format: cell-based
Conditions: 2 hrs post treatment; for Dmax: A549, A549 P300 HiBit cells; for DC50: A549 P300 HiBit cells
Procedure, shortened: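 A549 cells carrying HiBit-tagged p300 or CBP, seeded overnight at 37 °C/5% CO2, then treated with serial compound dilutions from 10 mM DMSO stocks. Incubation was 2 h for p300 and 24 h for CBP, followed by HiBit lytic detection reagent for 10 min at room temperature. Luminescence read gave degradation potency and Dmax.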

T1 sequence (Q09472 whole entry): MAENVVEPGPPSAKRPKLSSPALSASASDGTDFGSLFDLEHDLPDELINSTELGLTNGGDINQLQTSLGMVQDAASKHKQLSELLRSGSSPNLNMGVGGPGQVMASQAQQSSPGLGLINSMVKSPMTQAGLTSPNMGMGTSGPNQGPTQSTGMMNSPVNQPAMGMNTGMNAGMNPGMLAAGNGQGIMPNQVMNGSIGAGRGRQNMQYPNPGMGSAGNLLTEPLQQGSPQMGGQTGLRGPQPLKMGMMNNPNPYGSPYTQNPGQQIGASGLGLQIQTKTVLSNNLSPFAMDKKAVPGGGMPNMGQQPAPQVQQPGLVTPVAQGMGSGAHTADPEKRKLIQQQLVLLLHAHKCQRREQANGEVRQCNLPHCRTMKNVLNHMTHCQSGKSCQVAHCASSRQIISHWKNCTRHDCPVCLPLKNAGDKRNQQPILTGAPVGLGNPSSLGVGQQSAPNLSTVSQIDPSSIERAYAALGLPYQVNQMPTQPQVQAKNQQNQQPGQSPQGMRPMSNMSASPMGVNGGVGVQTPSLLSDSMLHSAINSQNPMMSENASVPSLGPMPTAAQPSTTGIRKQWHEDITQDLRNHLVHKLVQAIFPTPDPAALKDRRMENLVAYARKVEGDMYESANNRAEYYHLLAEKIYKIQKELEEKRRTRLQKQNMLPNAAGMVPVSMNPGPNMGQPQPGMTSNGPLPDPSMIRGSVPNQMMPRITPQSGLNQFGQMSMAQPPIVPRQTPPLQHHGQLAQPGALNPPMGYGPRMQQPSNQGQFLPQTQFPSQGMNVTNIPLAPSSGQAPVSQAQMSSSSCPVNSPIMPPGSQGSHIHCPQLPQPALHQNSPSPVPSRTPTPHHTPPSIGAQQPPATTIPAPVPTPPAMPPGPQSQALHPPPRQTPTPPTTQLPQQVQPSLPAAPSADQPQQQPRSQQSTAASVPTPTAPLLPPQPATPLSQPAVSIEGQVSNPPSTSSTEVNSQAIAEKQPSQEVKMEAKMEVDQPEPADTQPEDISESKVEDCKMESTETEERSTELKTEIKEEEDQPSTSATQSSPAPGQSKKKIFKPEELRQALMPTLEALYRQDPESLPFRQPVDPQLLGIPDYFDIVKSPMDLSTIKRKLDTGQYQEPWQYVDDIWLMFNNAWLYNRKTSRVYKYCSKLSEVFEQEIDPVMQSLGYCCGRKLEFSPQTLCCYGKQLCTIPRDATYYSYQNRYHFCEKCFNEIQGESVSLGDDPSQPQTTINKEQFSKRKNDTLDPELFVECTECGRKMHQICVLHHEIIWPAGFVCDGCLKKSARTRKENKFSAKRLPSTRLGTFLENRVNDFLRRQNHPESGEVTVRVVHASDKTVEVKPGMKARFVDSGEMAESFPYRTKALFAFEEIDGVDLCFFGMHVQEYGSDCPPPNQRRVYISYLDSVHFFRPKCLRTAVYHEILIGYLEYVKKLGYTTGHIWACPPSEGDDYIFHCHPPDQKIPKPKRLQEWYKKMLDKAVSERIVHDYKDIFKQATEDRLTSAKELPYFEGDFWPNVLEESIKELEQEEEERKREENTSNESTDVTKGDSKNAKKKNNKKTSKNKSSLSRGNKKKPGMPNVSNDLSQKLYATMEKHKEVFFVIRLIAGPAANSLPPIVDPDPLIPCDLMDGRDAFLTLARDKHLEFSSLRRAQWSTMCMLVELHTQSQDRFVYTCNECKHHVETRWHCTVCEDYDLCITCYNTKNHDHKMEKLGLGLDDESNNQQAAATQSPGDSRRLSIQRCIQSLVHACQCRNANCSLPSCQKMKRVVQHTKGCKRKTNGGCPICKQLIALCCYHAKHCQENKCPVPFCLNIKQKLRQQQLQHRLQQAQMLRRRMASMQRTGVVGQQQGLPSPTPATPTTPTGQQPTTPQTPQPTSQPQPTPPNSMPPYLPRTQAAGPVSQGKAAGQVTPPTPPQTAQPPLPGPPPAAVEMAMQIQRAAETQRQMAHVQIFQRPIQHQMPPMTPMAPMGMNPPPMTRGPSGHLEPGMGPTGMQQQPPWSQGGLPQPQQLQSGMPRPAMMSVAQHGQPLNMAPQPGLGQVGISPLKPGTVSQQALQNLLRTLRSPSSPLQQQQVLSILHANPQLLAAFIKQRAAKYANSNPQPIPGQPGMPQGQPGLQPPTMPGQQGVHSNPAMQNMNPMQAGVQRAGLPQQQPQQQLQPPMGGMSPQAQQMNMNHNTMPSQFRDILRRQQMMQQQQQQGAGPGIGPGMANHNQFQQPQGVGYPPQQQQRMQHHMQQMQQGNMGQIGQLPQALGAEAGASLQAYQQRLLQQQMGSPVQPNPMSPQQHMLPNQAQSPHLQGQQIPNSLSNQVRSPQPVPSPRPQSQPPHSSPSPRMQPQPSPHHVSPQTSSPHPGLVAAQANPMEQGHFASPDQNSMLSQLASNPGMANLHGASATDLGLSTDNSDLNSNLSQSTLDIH

SMILES | Dmax [%] | DC50 [nM]
CC(C)c1cc(C2CC(C)(C)Oc3cc(-c4ccc(C(=O)NCC#Cc5ccc6occ(C7CCC(=O)NC7=O)c6c5)nc4)c(F)cc32)cc2c1n(C)c(=O)n2C (stereo not shown) [Example A85, N-(3-(3-(2,6-dioxo-piperidin-3-yl)benzofuran-5-yl)prop-2-yn-1-yl)-5-(6-fluoro-4-(7-isopropyl-1,3-dimethyl-2-oxo-2,3-dihydro-1H-benzo [d]imidazol-5-yl)-2,2-dimethylchroman-7-yl)picolinamide] | > 80 | 1 to 9.9
Cc1cc(-c2ncc(N(C)c3cc(C4CCOCC4)c4c(c3)n(C)c(=O)n4C)nn2)cnc1C(=O)NCC#Cc1ccc2occ(C3CCC(=O)NC3=O)c2c1 (stereo not shown) [Example A90, 5-(6-((1,3-dimethyl-2-oxo-7-(tetrahydro-2H-pyran-4-yl)-2,3-dihydro-1H-benzo[d]imidazol-5-yl)(methyl)amino)-1,2,4-triazin-3-yl)-N-(3-(3-(2,6-dioxopiperidin-3-yl)benzofuran-5-yl)prop-2-yn-1-yl)-3-methylpicolinamide] | < 20 | 1 to 9.9
Cc1cc(-c2ncc3c(n2)OCCN3c2cc3c(c(N4CCOCC4)n2)n(C)c(=O)n3C)cnc1C(=O)NCC#Cc1ccc2occ(C3CCC(=O)NC3=O)c2c1 (stereo not shown) [Example A91, 5-(5-(1,3-dimethyl-4-morpholino-2-oxo-2,3-dihydro-1H-imidazo[4,5-c]pyridin-6-yl)-6,7-dihydro-5H-pyrimido[4,5-b][1,4]oxazin-2-yl)-N-(3-(3-(2,6-dioxopiperidin-3-yl)benzofuran-5-yl)prop-2-yn-1-yl)-3-methylpicolinamide] | < 20 | 10 to 99
Cc1cc(-c2cc3c(cc2C(F)F)N(c2ccc4c(c2)n(C)c(=O)n4C)CCC3)cnc1C(=O)NCC#Cc1ccc2occ(C3CCC(=O)NC3=O)c2c1 (stereo not shown) [Example A94, 5-(7-(difluoromethyl)-1-(1,3-dimethyl-2-oxo-2,3-dihydro-1H-benzo[d]imidazol-5-yl)-1,2,3,4-tetrahydro-quinolin-6-yl)-N-(3-(3-(2,6-dioxopiperidin-3-yl)benzofuran-5-yl)prop-2-yn-1-yl)-3-methylpicolinamide] | > 80 | 1 to 9.9
Cc1cc(-c2ncc(N(C)c3cc(C(C)C)c4c(c3)n(C)c(=O)n4C)cc2C#N)cnc1C(=O)NCC#Cc1ccc2occ(C3CCC(=O)NC3=O)c2c1 (stereo not shown) [Example A98, 3-cyano-N-(3-(3-(2,6-dioxopiperidin-3-yl)benzofuran-5-yl)prop-2-yn-1-yl)-5-((7-isopropyl-1,3-dimethyl-2-oxo-2,3-dihydro-1H-benzo[d]imidazol-5-yl)(methyl)amino)-5′-methyl-[2,3′-bipyridine]-6′-carboxamide] | > 80 | 1 to 9.9
Cn1c(=O)oc2ccc(-c3cccc4cc(-c5ccc(C(=O)NCC#Cc6ccc7occ(C8CCC(=O)NC8=O)c7c6)nc5)ncc34)cc21 (stereo not shown) [Example A101, N-(3-(3-(2,6-dioxo-piperidin-3-yl)benzofuran-5-yl)prop-2-yn-1-yl)-5-(8-(3-methyl-2-oxo-2,3-dihydrobenzo[d]oxazol-5-yl)isoquinolin-3-yl)picolinamide] | < 20 | > 1000
Cc1cc(-c2ncc(N(C)c3ccc4c(c3)n(C)c(=O)n4C)cn2)cnc1C(=O)NCC#Cc1ccc2occ(C3CCC(=O)NC3=O)c2c1 (stereo not shown) [Example A103, 5-(5-((1,3-dimethyl-2-oxo-2,3-dihydro-1H-benzo[d]imidazol-5-yl)(methyl)amino)pyrimidin-2-yl)-N-(3-(3-(2,6-dioxopiperidin-3-yl)benzofuran-5-yl)prop-2-yn-1-yl)-3-methylpicolinamide] | 60 to 79 | 1 to 9.9
CN1C(=O)Cc2cc(-c3cccc4cc(-c5ccc(C(=O)NCC#Cc6ccc7occ(C8CCC(=O)NC8=O)c7c6)nc5)ncc34)ccc21 (stereo not shown) [Example A104, N-(3-(3-(2,6-dioxo-piperidin-3-yl)benzofuran-5-yl)prop-2-yn-1-yl)-5-(8-(1-methyl-2-oxoindolin-5-yl)isoquinolin-3-yl)picolinamide] | < 20 | > 1000
CC(C#Cc1ccc2occ(C3CCC(=O)NC3=O)c2c1)NC(=O)c1ccc(-c2ncc(N(C)c3cc(C(C)C)c4c(c3)n(C)c(=O)n4C)cn2)cn1 (stereo not shown) [Example A105, N-(4-(3-(2,6-dioxo-piperidin-3-yl)benzofuran-5-yl)but-3-yn-2-yl)-5-(5-((7-isopropyl-1,3-dimethyl-2-oxo-2,3-dihydro-1H-benzo [d]imidazol-5-yl)(methyl)amino)pyrimidin-2-yl)picolinamide] | < 20 | > 1000
CC(C)c1cc(N(C)c2cnc(-c3ccc(C(=O)NCC#Cc4ccc5occ(C6CCC(=O)NC6=O)c5c4)nc3)nc2)cc2c1n(C)c(=O)n2C (stereo not shown) [Example A106, N-(3-(3-(2,6-dioxo-piperidin-3-yl)benzofuran-5-yl)prop-2-yn-1-yl)-5-(5-((7-isopropyl-1,3-dimethyl-2-oxo-2,3-dihydro-1H-benzo [d]imidazol-5-yl)(methyl)amino)pyrimidin-2-yl)picolinamide] | > 80 | 1 to 9.9
Cc1cc(-c2cn(C)c(=O)c3cc(-c4ccc(C(=O)NCC#Cc5ccc6occ(C7CCC(=O)NC7=O)c6c5)nc4)ncc23)cc2c1n(C)c(=O)n2C (stereo not shown) [Example A107, N-(3-(3-(2,6-dioxo-piperidin-3-yl)benzofuran-5-yl)prop-2-yn-1-yl)-5-(6-methyl-5-oxo-8-(1,3,7-trimethyl-2-oxo-2,3-dihydro-1H-benzo[d]imidazol-5-yl)-5,6-dihydro-2,6-naphthyridin-3-yl)picolinamide] | > 80 | < 1
CC(C)c1cc(N2CCOc3cc(-c4ccc(C(=O)NCC#Cc5ccc6occ(C7CCC(=O)NC7=O)c6c5)nc4)c(F)cc32)cc2c1n(C)c(=O)n2C (stereo not shown) [Example A110, N-(3-(3-(2,6-dioxo-piperidin-3-yl)benzofuran-5-yl)prop-2-yn-1-yl)-5-(6-fluoro-4-(7-isopropyl-1,3-dimethyl-2-oxo-2,3-dihydro-1H-benzo[d]imidazol-5-yl)-3,4-dihydro-2H-benzo[b][1,4]oxazin-7-yl)picolinamide] | > 80 | 1 to 9.9
Cc1cc(-c2ncc(N(C)c3cc(C4CCN(C)CC4)c4c(c3)n(C)c(=O)n4C)cn2)cnc1C(=O)NCC#Cc1ccc2occ(C3CCC(=O)NC3=O)c2c1 (stereo not shown) [Example A112, 5-(5-((1,3-dimethyl-7-(1-methylpiperidin-4-yl)-2-oxo-2,3-dihydro-1H-benzo [d]imidazol-5-yl)(methyl)amino)pyrimidin-2-yl)-N-(3-(3-(2,6-dioxopiperidin-3-yl)benzofuran-5-yl)prop-2-yn-1-yl)-3-methylpicolinamide] | > 80 | 1 to 9.9
CC(C)c1cc(N2CCOc3cc(-c4ccc(C(=O)NCC#Cc5ccc6occ(C7CCC(=O)NC7=O)c6c5)nc4)c(Cl)cc32)cc2c1n(C)c(=O)n2C (stereo not shown) [Example A113, 5-(6-chloro-4-(7-isopropyl-1,3-dimethyl-2-oxo-2,3-dihydro-1H-benzo[d]imidazol-5-yl)-3,4-dihydro-2H-benzo[b][1,4]oxazin-7-yl)-N-(3-(3-(2,6-dioxopiperidin-3-yl)benzofuran-5-yl)prop-2-yn-1-yl)picolinamide] | > 80 | 10 to 99
